Assay results as given in ChEMBL document CHEMBL3351865, “N-aryl-2-aminobenzimidazoles: novel, efficacious, antimalarial lead compounds” (J Med Chem, 2014).
≈ marks a conversion by molar mass, not a printed value.

Assays:
Plasmodium falciparum [1] = assay: microbe, parasite or virus in culture; conditions: NF54
Description: Antiplasmodial activity against Plasmodium falciparum NF54 by SYBR-green based assay

in vitro [2] = conditions: human, THP-1 cells
Description: Selectivity index, ratio of IC50 for human THP1 cells to IC50 for Plasmodium falciparum

Plasmodium falciparum [3] = assay: microbe, parasite or virus in culture; conditions: K1
Description: Antiplasmodial activity against Plasmodium falciparum K1 by SYBR-green based assay

in vitro [4] = conditions: human, microsomes
Description: Clearance in human microsomes

in vitro [5] = conditions: human, plasma
Description: Unbound fraction in human plasma

physchem [6] = conditions: buffer
Description: Aqueous solubility of the compound

physchem [7] = conditions: buffer, pH 7.4
Description: Lipophilicity, logD of the compound at pH 7.4

in vitro [8] = conditions: human, hepatocytes
Description: Clearance in human hepatocytes assessed per million cells

Plasmodium falciparum [9] = assay: microbe, parasite or virus in culture; conditions: SB1-A6
Description: Antiplasmodial activity against Plasmodium falciparum SB1-A6 harboring mutations conferring drug-resistance by SYBR-green based assay

Plasmodium falciparum [10] = assay: microbe, parasite or virus in culture; conditions: 7G8
Description: Antiplasmodial activity against Plasmodium falciparum 7G8 harboring mutations conferring drug-resistance by SYBR-green based assay

Plasmodium falciparum [11] = assay: microbe, parasite or virus in culture; conditions: W2
Description: Antiplasmodial activity against Plasmodium falciparum W2 harboring mutations conferring drug-resistance by SYBR-green based assay

[12] = target: Voltage-gated inwardly rectifying potassium channel KCNH2 (Homo sapiens, UniProt Q12809)
Sequence of Voltage-gated inwardly rectifying potassium channel KCNH2 (Q12809 whole entry): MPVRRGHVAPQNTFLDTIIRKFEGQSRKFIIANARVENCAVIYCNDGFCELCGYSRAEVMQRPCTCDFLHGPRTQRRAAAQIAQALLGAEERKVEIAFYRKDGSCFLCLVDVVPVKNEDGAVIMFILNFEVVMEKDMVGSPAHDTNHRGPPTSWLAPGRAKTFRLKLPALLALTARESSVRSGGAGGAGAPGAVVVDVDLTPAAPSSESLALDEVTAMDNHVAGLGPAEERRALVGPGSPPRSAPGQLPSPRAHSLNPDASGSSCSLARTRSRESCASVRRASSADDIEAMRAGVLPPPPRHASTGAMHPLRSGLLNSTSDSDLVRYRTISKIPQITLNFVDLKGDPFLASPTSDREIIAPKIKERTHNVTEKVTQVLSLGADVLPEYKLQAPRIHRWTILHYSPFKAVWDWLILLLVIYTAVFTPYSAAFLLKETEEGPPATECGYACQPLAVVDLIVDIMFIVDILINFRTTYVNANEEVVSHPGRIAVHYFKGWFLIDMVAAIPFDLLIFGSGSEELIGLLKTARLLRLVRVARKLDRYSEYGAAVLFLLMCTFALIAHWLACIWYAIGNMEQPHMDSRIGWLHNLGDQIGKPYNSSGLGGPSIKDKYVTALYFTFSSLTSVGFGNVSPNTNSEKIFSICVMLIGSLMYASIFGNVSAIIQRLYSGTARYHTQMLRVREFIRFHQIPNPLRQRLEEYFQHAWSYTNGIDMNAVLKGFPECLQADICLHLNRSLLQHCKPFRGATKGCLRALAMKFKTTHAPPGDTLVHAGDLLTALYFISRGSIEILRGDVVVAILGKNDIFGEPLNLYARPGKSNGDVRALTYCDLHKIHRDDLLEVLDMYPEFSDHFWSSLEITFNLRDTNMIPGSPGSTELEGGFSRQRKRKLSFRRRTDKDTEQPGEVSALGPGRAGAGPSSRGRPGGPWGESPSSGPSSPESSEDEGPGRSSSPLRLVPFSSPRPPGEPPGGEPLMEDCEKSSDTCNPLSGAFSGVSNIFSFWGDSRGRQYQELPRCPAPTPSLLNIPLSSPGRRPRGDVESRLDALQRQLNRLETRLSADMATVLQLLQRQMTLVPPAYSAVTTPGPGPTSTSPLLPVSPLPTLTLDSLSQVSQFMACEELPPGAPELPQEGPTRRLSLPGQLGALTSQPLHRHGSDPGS

Plasmodium falciparum [13] = assay: microbe, parasite or virus in culture; conditions: Dd2
Description: Antiplasmodial activity against Plasmodium falciparum Dd2 harboring mutations conferring drug-resistance by SYBR-green based assay

Plasmodium berghei [14] = assay: animal or person; conditions: in Mus musculus, read-out: INH
Description: Antiplasmodial activity against Plasmodium berghei infected in mouse assessed as reduction in parasitemia at 50 mg/kg treated with four once daily doses

Plasmodium berghei [15] = conditions: dose 50 mg/kg
Description: Antiplasmodial activity against Plasmodium berghei infected in mouse assessed as increase in mean survival days at 50 mg/kg treated with four once daily doses

in vivo [16] = conditions: rat, po, 5 mg/kg
Description: Half life in rat at 5 mg/kg, po

in vivo [17] = conditions: mouse, 50 mg/kg
Description: Half life in Plasmodium berghei infected mouse at 50 mg/kg treated with four once daily doses

in vivo [18] = conditions: rat, po, 5 mg/kg; remark: listed apart in the source
in vivo [19] = conditions: rat, iv, 1 mg/kg
Description: Half life in rat at 1 mg/kg, iv

in vivo [20] = conditions: mouse, 30 mg/kg
Description: Half life in Plasmodium berghei infected mouse at 30 mg/kg treated with four once daily doses

in vivo [21] = conditions: mouse, plasma, 30 mg/kg
Description: AUClast in Plasmodium berghei infected mouse at 30 mg/kg treated with four once daily doses

in vivo [22] = conditions: mouse, 30 mg/kg; remark: listed apart in the source
Plasmodium berghei [23] = conditions: dose 30 mg/kg
Description: Antiplasmodial activity against Plasmodium berghei infected in mouse assessed as increase in mean survival days at 30 mg/kg treated with four once daily doses

in vivo [24] = conditions: mouse, plasma, 50 mg/kg
Description: AUClast in Plasmodium berghei infected mouse at 50 mg/kg treated with four once daily doses

in vivo [25] = conditions: rat, po, 5 mg/kg; remark: listed apart in the source
in vivo [26] = conditions: mouse, 50 mg/kg; remark: listed apart in the source
in vivo [27] = conditions: rat, plasma, iv, 1 mg/kg
in vivo [28] = conditions: rat, iv, 1 mg/kg; remark: listed apart in the source
Description: Volume of distribution at steady state in rat at 1 mg/kg, iv

Plasmodium berghei [29] = assay: animal or person; conditions: in Mus musculus, read-out: INH; remark: listed apart in the source
Description: Antiplasmodial activity against Plasmodium berghei infected in mouse assessed as reduction in parasitemia at 30 mg/kg treated with four once daily doses

in vivo [30] = conditions: rat, iv, 1 mg/kg; remark: listed apart in the source
Description: Clearance in rat at 1 mg/kg, iv

[31] = Half life in Plasmodium berghei infected mouse at 100 mg/kg treated with four once daily doses; type: ADME, organism-based; set-up: dose 100 mg/kg; conditions: in vivo
Plasmodium berghei [32] = assay: Antiplasmodial activity against Plasmodium berghei infected in mouse assessed as increase in mean survival days at 100 mg/kg treated with four once daily doses; type: functional
[33] = Cmax in Plasmodium berghei infected mouse at 100 mg/kg treated with four once daily doses; type: ADME, organism-based; set-up: dose 100 mg/kg; conditions: in vivo
[34] = AUClast in Plasmodium berghei infected mouse at 100 mg/kg treated with four once daily doses; type: ADME, organism-based; set-up: time 0 - last, dose 100 mg/kg; conditions: plasma
Plasmodium berghei [35] = assay: Antiplasmodial activity against Plasmodium berghei infected in mouse assessed as reduction in parasitemia at 100 mg/kg treated with four once daily doses; type: functional

SMILES: OCCN1CCN(c2ccc3nc(Nc4ccc(C(F)(F)F)cn4)[nH]c3c2)CC1
- IC50 (Plasmodium falciparum [1]): 130 nM
- selectivity ratio (in vitro [2]): > 1110
- IC50 (Plasmodium falciparum [3]): 210 nM

SMILES: CN1C2CCC1CC(c1ccc3nc(Nc4ccc(C(F)(F)F)cn4)[nH]c3c1)C2 (centres undefined)
- IC50 (Plasmodium falciparum [1]): 94 nM
- selectivity ratio (in vitro [2]): 308
- IC50 (Plasmodium falciparum [3]): 200 nM

SMILES: Cc1nc(Nc2nc3cnc(N4CCN(C)CC4)cc3[nH]2)cc(C2CC2)c1F
- IC50 (Plasmodium falciparum [1]): 17 nM
- microsomal CLint (in vitro [4]): 21.8 µL/min/mg
- fraction unbound (in vitro [5]): 0.051
- solubility (physchem [6]): 5.6 µM (≈ 2.14 µg/mL)
- logD (physchem [7]): 3.9
- hepatocyte CLint (in vitro [8]): 11.3 µL/min/1e6 cells
- IC50 (Plasmodium falciparum [3]): 26 nM

SMILES: Cc1ccc(Nc2nc3ccc(N4CCN(C)CC4)cc3[nH]2)nc1
- IC50 (Plasmodium falciparum [1]): 130 nM
- selectivity ratio (in vitro [2]): > 385
- microsomal CLint (in vitro [4]): 4.8 µL/min/mg
- IC50 (Plasmodium falciparum [9]): 86.2 nM
- fraction unbound (in vitro [5]): 0.183
- IC50 (Plasmodium falciparum [10]): 307 nM
- solubility (physchem [6]): 1170 µM (≈ 377 µg/mL)
- IC50 (Plasmodium falciparum [11]): 437 nM
- IC50 [12]: 12700 nM
- logD (physchem [7]): 2.2
- hepatocyte CLint (in vitro [8]): 19.5 µL/min/1e6 cells
- IC50 (Plasmodium falciparum [13]): 201 nM
- IC50 (Plasmodium falciparum [3]): 270 nM

SMILES: Cc1nc(Nc2nc3ccc(N4CCN(C)CC4)cc3[nH]2)ccc1F
- IC50 (Plasmodium falciparum [1]): 48 nM
- selectivity ratio (in vitro [2]): > 1050
- IC50 (Plasmodium falciparum [10]): 98.8 nM
- IC50 (Plasmodium falciparum [11]): 106 nM
- IC50 (Plasmodium falciparum [3]): 110 nM

SMILES: Cc1nc(Nc2nc3cnc(N4CCN(C)CC4)cc3[nH]2)ccc1Cl
- IC50 (Plasmodium falciparum [1]): 44 nM
- selectivity ratio (in vitro [2]): 500
- IC50 (Plasmodium falciparum [3]): 110 nM

SMILES: CN1CCN(c2ccc3nc(Nc4ccccn4)[nH]c3c2)CC1
- IC50 (Plasmodium falciparum [1]): > 500 nM
- selectivity ratio (in vitro [2]): > 86
- IC50 (Plasmodium falciparum [3]): > 500 nM

SMILES: CN1CCC(c2ccc3nc(Nc4ccc(C(F)(F)F)cn4)[nH]c3c2)CC1
- inhibition in vivo at 50 mg/kg (Plasmodium berghei [14]): 99.8%
- IC50 (Plasmodium falciparum [1]): 36 nM
- microsomal CLint (in vitro [4]): < 4 µL/min/mg
- MSD (Plasmodium berghei [15]): 30 days
- half-life (in vivo [16]): 19.2 h
- half-life (in vivo [17]): 18.5 h
- Cmax (in vivo [18]): 0.5 µM
- fraction unbound (in vitro [5]): 0.134
- solubility (physchem [6]): 121 µM (≈ 45.4 µg/mL)
- half-life (in vivo [19]): 14.9 h
- half-life (in vivo [20]): 9.3 h
- AUC(0-t) (in vivo [21]): 54 µM·h
- Cmax (in vivo [22]): 5.2 µM
- MSD (Plasmodium berghei [23]): 25 days
- AUC(0-t) (in vivo [24]): 131 µM·h
- bioavailability (in vivo [25]): 79%
- logD (physchem [7]): 3
- hepatocyte CLint (in vitro [8]): 4.7 µL/min/1e6 cells
- Cmax (in vivo [26]): 8.8 µM
- AUC (in vivo [27]): 6 µM·h
- Vd (in vivo [28]): 16.9 L/kg
- inhibition in vivo at 30 mg/kg (Plasmodium berghei [29]): 98.9%
- IC50 (Plasmodium falciparum [3]): 59 nM
- clearance (in vivo [30]): 14.9 mL/min/kg

SMILES: CN1CCN(c2nc3[nH]c(Nc4ccc(Br)cn4)nc3cc2F)CC1
- IC50 (Plasmodium falciparum [1]): > 500 nM
- selectivity ratio (in vitro [2]): > 100
- IC50 (Plasmodium falciparum [3]): > 500 nM

SMILES: O=C1C(O)=C([C@H]2CC[C@H](c3ccc(Cl)cc3)CC2)C(=O)c2ccccc21 [ATOVAQUONE]
- IC50 (Plasmodium falciparum [9]): > 2000 nM
- IC50 (Plasmodium falciparum [10]): 2.3 nM
- IC50 (Plasmodium falciparum [13]): 2 nM
- IC50 (Plasmodium falciparum [3]): 2.3 nM

SMILES: CCc1nc(N)nc(N)c1-c1ccc(Cl)cc1 [PYRIMETHAMINE]
- IC50 (Plasmodium falciparum [9]): 10.9 nM

SMILES: CN1CCN(C(=O)c2ccc3nc(Nc4ccc(Br)cn4)[nH]c3c2)CC1
- IC50 (Plasmodium falciparum [1]): 450 nM
- selectivity ratio (in vitro [2]): 548
- IC50 (Plasmodium falciparum [3]): > 500 nM

SMILES: CN1CCN(Cc2ccc3nc(Nc4ccc(C(F)(F)F)cn4)[nH]c3c2)CC1
- IC50 (Plasmodium falciparum [1]): 93 nM
- microsomal CLint (in vitro [4]): < 4 µL/min/mg
- fraction unbound (in vitro [5]): 0.275
- solubility (physchem [6]): > 1000 µM
- logD (physchem [7]): 3.2
- hepatocyte CLint (in vitro [8]): 7.5 µL/min/1e6 cells
- IC50 (Plasmodium falciparum [3]): 166 nM

SMILES: CN1CCN(c2cc(Cl)c3nc(Nc4ccc(Br)cn4)[nH]c3c2)CC1
- IC50 (Plasmodium falciparum [1]): 110 nM
- microsomal CLint (in vitro [4]): < 4 µL/min/mg
- fraction unbound (in vitro [5]): 0.301
- solubility (physchem [6]): > 1000 µM
- logD (physchem [7]): 3
- hepatocyte CLint (in vitro [8]): 9 µL/min/1e6 cells
- IC50 (Plasmodium falciparum [3]): 160 nM

SMILES: CN1CCC(c2ccc3nc(Nc4ccc(C(F)(F)F)cn4)[nH]c3c2)C1 (centres undefined)
- IC50 (Plasmodium falciparum [1]): 53 nM
- IC50 (Plasmodium falciparum [3]): 85 nM

SMILES: C[C@@H]1CC[C@H]2[C@@H](C)C(=O)O[C@@H]3O[C@@]4(C)CC[C@@H]1[C@]32OO4 [ARTEMISININ]
- IC50 (Plasmodium falciparum [1]): 7.1 nM
- IC50 (Plasmodium falciparum [9]): 16.6 nM
- IC50 (Plasmodium falciparum [10]): 1.3 nM
- IC50 (Plasmodium falciparum [11]): 6.5 nM
- IC50 (Plasmodium falciparum [13]): 10.3 nM

SMILES: CN1CCN(c2ccc3nc(Nc4ccc(C(F)(F)F)nc4)[nH]c3c2)CC1
- IC50 (Plasmodium falciparum [1]): > 500 nM
- selectivity ratio (in vitro [2]): > 500
- IC50 (Plasmodium falciparum [3]): > 500 nM

SMILES: Brc1ccc(Nc2nc3ccc(N4CCNCC4)cc3[nH]2)nc1
- inhibition in vivo at 50 mg/kg (Plasmodium berghei [14]): 99.9%
- IC50 (Plasmodium falciparum [1]): 39 nM
- selectivity ratio (in vitro [2]): 961
- MSD (Plasmodium berghei [15]): 11 days
- half-life (in vivo [17]): 4.5 h
- AUC(0-t) (in vivo [24]): 202 µM·h
- Cmax (in vivo [26]): 25.5 µM
- IC50 (Plasmodium falciparum [3]): 278 nM

SMILES: Cc1nc(Nc2nc3ccc(C4CCN(C)CC4)cc3[nH]2)cc(C2CC2)c1F
- IC50 (Plasmodium falciparum [1]): 13 nM
- selectivity ratio (in vitro [2]): 692
- IC50 (Plasmodium falciparum [3]): 30 nM

SMILES: FC(F)(F)c1ccc(Nc2nc3ccc(N4CCN5CCCC5C4)cc3[nH]2)nc1 (centres undefined)
- IC50 (Plasmodium falciparum [1]): 56 nM
- selectivity ratio (in vitro [2]): 357
- IC50 (Plasmodium falciparum [3]): 119 nM

SMILES: CN1CCN(c2cc3[nH]c(Nc4ccc(C(F)(F)F)cn4)nc3cn2)CC1
- IC50 (Plasmodium falciparum [1]): 29 nM
- selectivity ratio (in vitro [2]): 1030
- IC50 (Plasmodium falciparum [3]): 54 nM

SMILES: Brc1ccc(Nc2nc3ccc(N4CCOCC4)cc3[nH]2)nc1
- IC50 (Plasmodium falciparum [1]): > 500 nM
- selectivity ratio (in vitro [2]): > 100
- IC50 (Plasmodium falciparum [3]): > 500 nM

SMILES: CN1CCN(c2ccc3nc(Nc4ccc(Br)cc4)[nH]c3c2)CC1
- IC50 (Plasmodium falciparum [1]): 210 nM
- selectivity ratio (in vitro [2]): > 1190
- IC50 (Plasmodium falciparum [3]): 390 nM

SMILES: CN1CCN(c2ccc3nc(Nc4ccc(C(F)(F)F)cn4)[nH]c3c2)CC1
- inhibition in vivo at 50 mg/kg (Plasmodium berghei [14]): 99.9%
- IC50 (Plasmodium falciparum [1]): 82 nM
- selectivity ratio (in vitro [2]): 890
- MSD (Plasmodium berghei [15]): 15 days
- half-life (in vivo [17]): 5.4 h
- half-life [31]: 4.9 h
- MSD (Plasmodium berghei [32]): 24 days
- Cmax [33]: 6.1 µM
- AUC(0-t) [34]: 41.6 µM·h
- half-life (in vivo [20]): 3.7 h
- AUC(0-t) (in vivo [21]): 19.2 µM·h
- inhibition in vivo at 100 mg/kg (Plasmodium berghei [35]): 99.9%
- Cmax (in vivo [22]): 3.3 µM
- MSD (Plasmodium berghei [23]): 10 days
- AUC(0-t) (in vivo [24]): 33.7 µM·h
- Cmax (in vivo [26]): 5 µM
- inhibition in vivo at 30 mg/kg (Plasmodium berghei [29]): 81.3%
- IC50 (Plasmodium falciparum [3]): 120 nM

SMILES: CN1CCC(c2ccc3nc(Nc4ncc(C(F)(F)F)cc4Cl)[nH]c3c2)CC1
- IC50 (Plasmodium falciparum [1]): 80 nM
- IC50 (Plasmodium falciparum [3]): 130 nM
